Data taken from patent publication US20230233513A1, “TAXIFOLIN FORMULATION COMPRISING THIAMINE” (Evanium Healthcare GmbH, priority 2020, published 2023).

Experiments:
[1] = Screening of water-soluble polymers / alkylammonium cations: recrystallization of supersaturated taxifolin/β-CD complex solution; format: physicochemical; settings: taxifolin:choline/carnitine cations ratio 1:0.85, 96 h
Protocol: In order to examine which water-soluble polymers are particularly suitable for improving the stability and dissolution capacity of flavonoid-cyclodextrin complexes, a screening was carried out. For this purpose, first, a supersaturated taxifolin/β-CD complex solution was prepared by adding an excess of equimolar taxifolin/β-CD complex and subsequent heating to 35° C. and filtering off.

[2] = Stability examination taxifolin: color change of aqueous solutions; format: physicochemical; settings: stored open, protected from light, room temperature
Protocol: In order to investigate the stability of the flavonoid taxifolin and the influence of thiamine and β-CD, experiments were also carried out in this regard. Since taxifolin forms red-brown oligomers upon breakdown, the detection is quite straightforward to carry out. Method: Three aqueous solutions were prepared in beakers containing I) 100 mg taxifolin in 150 ml distilled water II) 100 mg of Taxifolin+13 mg of thiamine HCl in 150 ml distilled water and III) 100 mg taxifolin+13 mg of thiamine HCl+373 mg of β-CD in distilled water. Samples were stored open and protected from light at room temperature and the color of the solution was checked every 24 h.

| Structure (SMILES) | Recrystallization after 96 h [1] | Remark (change versus reference solution) [1] | Time of color change ([2]; aqueous solution) [h] | Color of solution [2] |
| --- | --- | --- | --- | --- |
| C[N+](C)(C)C[C@H](O)CC(=O)[O-].O=C(O)C(O)C(O)C(=O)O [L-Carnitine tartrate, L-carnitine tartrate] | Distinct | No change |  |  |
| O=C1c2c(O)cc(O)cc2O[C@H](c2ccc(O)c(O)c2)[C@H]1O [Taxifolin reference, taxifolin] |  |  | 48 | Red-brown |
